Data set [1] is described as follows: (§1) Cytotoxicity against BALB/c mouse peritoneal macrophages assessed as reduction in cell viability after 48 hrs by MTT assay. It is filed as cell-based, Peritoneal macrophage. The settings on record: BALB/c, peritoneal macrophages.
The test system of data set [2] is Peritoneal macrophage. The data set is described as §1. The format is cell-based. The settings on record: peritoneal macrophage, 48 h.
In data set [3] the target is T1, Angiotensin-converting enzyme (Rattus norvegicus, UniProt P47820).
T1 sequence (P47820 whole entry): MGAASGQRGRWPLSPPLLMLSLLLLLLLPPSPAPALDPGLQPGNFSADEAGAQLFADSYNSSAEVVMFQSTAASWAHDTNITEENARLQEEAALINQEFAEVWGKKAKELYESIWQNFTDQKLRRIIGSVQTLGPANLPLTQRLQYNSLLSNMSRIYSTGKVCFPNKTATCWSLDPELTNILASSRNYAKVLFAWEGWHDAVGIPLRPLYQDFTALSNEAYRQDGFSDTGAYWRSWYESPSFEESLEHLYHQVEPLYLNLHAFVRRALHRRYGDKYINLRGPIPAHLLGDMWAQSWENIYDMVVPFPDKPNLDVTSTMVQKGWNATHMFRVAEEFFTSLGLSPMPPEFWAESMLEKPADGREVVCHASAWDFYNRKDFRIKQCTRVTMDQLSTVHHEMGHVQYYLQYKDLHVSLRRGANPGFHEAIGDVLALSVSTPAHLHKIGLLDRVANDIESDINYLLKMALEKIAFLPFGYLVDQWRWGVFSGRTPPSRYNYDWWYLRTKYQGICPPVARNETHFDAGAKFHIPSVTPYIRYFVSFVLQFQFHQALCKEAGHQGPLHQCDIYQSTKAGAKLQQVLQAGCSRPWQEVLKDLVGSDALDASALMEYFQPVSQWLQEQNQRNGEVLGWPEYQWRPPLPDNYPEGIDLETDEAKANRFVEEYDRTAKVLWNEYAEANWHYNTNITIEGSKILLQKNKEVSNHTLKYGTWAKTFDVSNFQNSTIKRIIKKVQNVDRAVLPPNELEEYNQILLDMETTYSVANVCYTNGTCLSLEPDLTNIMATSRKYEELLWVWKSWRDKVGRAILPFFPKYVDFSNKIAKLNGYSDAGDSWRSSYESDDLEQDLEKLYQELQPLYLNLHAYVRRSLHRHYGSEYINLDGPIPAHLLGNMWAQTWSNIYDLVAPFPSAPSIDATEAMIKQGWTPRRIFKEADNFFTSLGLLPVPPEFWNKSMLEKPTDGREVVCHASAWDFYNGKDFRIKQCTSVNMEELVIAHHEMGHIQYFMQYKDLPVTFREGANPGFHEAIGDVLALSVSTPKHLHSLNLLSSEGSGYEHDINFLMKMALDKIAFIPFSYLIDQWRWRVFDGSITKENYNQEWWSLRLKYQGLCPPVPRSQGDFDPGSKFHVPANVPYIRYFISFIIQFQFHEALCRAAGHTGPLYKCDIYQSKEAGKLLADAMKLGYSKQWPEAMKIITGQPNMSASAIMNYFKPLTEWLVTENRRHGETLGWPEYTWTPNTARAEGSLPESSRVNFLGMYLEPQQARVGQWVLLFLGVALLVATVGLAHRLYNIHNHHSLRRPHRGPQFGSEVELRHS
The experiment in a line: Inhibition of Wistar rat plasma angiotensin 1-converting enzyme using H-hippuryl-His-Leu-OH as substrate after 20 mins by fluorescence assay.

The test system of the next data set is Erythrocyte. As to the kind of experiment: Hemolytic activity against sheep blood erythrocytes at 10^-6 to 10^-4 M after 1 hr. It is filed as ADME, cell-based, Ovis aries.
Data set [4] relates to Peritoneal macrophage. As to the kind of experiment: Cytotoxicity against BALB/c mouse peritoneal macrophages assessed as reduction in cell viability at 10^-4 M after 48 hrs by MTT assay relative to control. It is filed as cell-based. The settings on record: 100 µM.
The subject of data set [5] is Peritoneal macrophage. The experiment in a line: Cytotoxicity against BALB/c mouse peritoneal macrophages assessed as reduction in cell viability at 5 x 10^-4 M after 48 hrs by MTT assay relative to control. It is filed as cell-based. The settings on record: 500 µM.

Among the data in ChEMBL document CHEMBL4130385, “Structure-function studies of BPP-BrachyNH2 and synthetic analogues thereof with Angiotensin I-Converting Enzyme” (Eur J Med Chem, 2017) are CC50, Activity and IC50 values, retold here.

As to H-PPPKVSP-NH2, the CC50 at 48 h in data set [1] was 81.9 µM. Also, the results for the Activity result in the data set with Peritoneal macrophage [2] and in the data set with Erythrocyte were “Dose-dependent effect” and “Non-Toxic”, respectively. The same substance displayed a half-maximal inhibitory concentration (IC50) in data set [3] of 17.5 µM.
On to H-WPPPKVS-NH2, for which the Activity in the data set on Peritoneal macrophage [4] is recorded as 7.7%; in the data set with Peritoneal macrophage [5], 14.8%; in the data set on Erythrocyte, “Non-Toxic”. The CC50 at 48 h in data set [1] was 33600 µM. In data set [3], this substance gave a half-maximal inhibitory concentration (IC50) of 162 µM.
Consider H-WPPPKVSP-NH2, for which the CC50 at 48 h in data set [1] is 176 µM. Further, the Activity result with Peritoneal macrophage [2] is given as “Dose-dependent effect”; with Erythrocyte it was “Non-Toxic”. For the same substance, in data set [3], inhibition was half-maximal at 5.51 µM (IC50).
